The record followed here is US11820776B2, “Process for the preparation of Remimazolam and solid state forms of Remimazolam salts” (WATSON LABORATORIES INC., priority 2017, dated 2023).

Holding throughout (assay type): physicochemical
Data set [1] can be described thus: Solid state stability at 80% relative humidity in open Petri dish. The note with it: 80% relative humidity (RH), room temperature (RT).
A short description of data set [2]: Solubility in various pH ranges. The note with it: comparator not stated.
A further data set in a line: Kinetic water solubility. The following applies: comparator not stated.
A further data set can be described thus: Bulk density. The note with it: compared to Remimazolam besylate.
A short description of data set [3]: Compressibility properties. The following applies: compared to Remimazolam besylate; may indicate better flow properties.

`COC(=O)CC[C@@H]1N=C(c2ccccn2)c2cc(Br)ccc2-n2c(C)cnc21.CS(=O)(=O)O` [Form 2 of Remimazolam Methane Sulfonate]: the “period for which the crystalline form is stable” value (“period” below) in data set [1] is listed as “at least 24 hours”. Further, in data set [2], the “solubility in various pH ranges” value is “improved”. Besides, the kinetic water solubility entry in “Kinetic water solubility” is on record as “improved”.

In the case of `CC1(C)C2CCC1(CS(=O)(=O)O)C(=O)C2.COC(=O)CC[C@@H]1N=C(c2ccccn2)c2cc(Br)ccc2-n2c(C)cnc21` [Form 2 of Remimazolam Camphor Sulfonate], in data set [1], the “period” value is reported as “at least 24 hours”. Also, in the data set “Bulk density”, the bulk density entry is “higher”. Further, the compressibility properties entry in data set [3] was “improved”.

On to `Br.COC(=O)CC[C@@H]1N=C(c2ccccn2)c2cc(Br)ccc2-n2c(C)cnc21` [Form 1 of Remimazolam Mono hydrobromide], for which the “period” value in data set [1] is recorded as “at least 24 hours”. Besides, in data set [2], the “solubility in various pH ranges” value is reported as “improved”. The kinetic water solubility result in the data set “Kinetic water solubility” is reported as “improved”.
